Legend:
panelists [1] = assay: Taste evaluation of sweetness against sucrose solutions, Example 2 (compound 1 with Mogroside V); assay type: in vivo, human; settings: for sweetness, equally sweet to sucrose in acidic water: two panelists
Procedure: (§1) Ingredients were added to acidic water or acidic water with compound 1 while stirring until solids were visibly dissolved and the sample was poured into a glass bottle and stored at 4° C.
(§2) Taste tests were carried out with two panelists. Bottles were removed from the refrigerator and about 25 ml of beverage was poured into 4 oz-plastic cups. Panelists were given mineral water to rinse their mouth before tasting and between tasting different samples. Unsalted crackers were also given to panelists to eat followed by rinsing their mouth with mineral water before tasting the next sample. The sucrose solutions in Table 4, a sample of Mogroside V in acidic water and a sample of compound 1 and Mogroside V in acidic water were given to panelists. Panelists were asked to evaluate the sweetness of samples against 7%, 8%, 9%, and 10% sucrose solution and describe the difference of taste profile. Panelists were instructed to sip, evaluate the sweetness, and then spit the samples in cups provided for that purpose.

panelists [2] = assay: Taste evaluation of sweetness against sucrose solutions, Example 3 (compound 1 with Rebaudioside A); assay type: in vivo, human; settings: for sweetness, equally sweet to sucrose in acidic water: two panelists
Procedure: as §1
as §2, with “Rebaudioside A” for “Mogroside V”, “differences in the” for “difference of”, “profiles.” for “profile.”

panelists [3] = assay: Taste evaluation of sweetness against sucrose solutions, Example 1 (compound 1 with Rebaudioside M); assay type: in vivo, human
Procedure: as §1
Taste tests were carried out with two panelists. Bottles were removed from the refrigerator and about 25 ml of beverage was poured into 4 oz-plastic cups. Panelists were given mineral water to rinse their mouth before tasting and between tasting different samples. Unsalted crackers were also given to panelists to eat followed by rinsing their mouth with mineral water before tasting the next sample.
First, two panelists assessed the sweetness of 5 ppm of compound 1 in acidic water against 1.5% sucrose solution in acidic water.
Sucrose solutions in Table 5, a sample of Rebaudioside M in acidic water and a sample of compound 1 and Rebaudioside M in acidic water were given to panelists. Panelists were asked to evaluate the sweetness of samples against 7%, 8%, 9%, and 10% sucrose solution and describe the differences in the taste profiles. Panelists were instructed to sip, evaluate the sweetness, and then spit the samples in cups provided for that purpose.

[4] = Solubility in water during sample preparation; assay type: physicochemical; settings: 2.5 mg in 500 g water, initially, before microwave, sonication and agitation
Procedure: The sample was treated with Microwave (1 min), Sonication (15 min), and agitation (30 min) repeatedly until the solution became visually clear. The solution was cooled at room temperature and citric acid was added.

[5] = 5 ppm compound 1 and 400 ppm Rebaudioside A in acidic water
[6] = 5 ppm compound 1 and 320 ppm Rebaudioside M in acidic water
[7] = 5 ppm compound 1 and 400 ppm Mogroside V in acidic water, both panelists

## C[C@H](CC[C@@H](O[C@@H]1O[C@H](CO[C@@H]2O[C@H](CO)[C@@H](O)[C@H](O)[C@H]2O)[C@@H](O)[C@H](O)[C@H]1O[C@@H]1O[C@H](CO)[C@@H](O)[C@H](O)[C@H]1O)C(C)(C)O)[C@H]1CC[C@@]2(C)[C@@H]3CC=C4[C@@H](CC[C@H](O[C@@H]5O[C@H](CO[C@@H]6O[C@H](CO)[C@@H](O)[C@H](O)[C@H]6O)[C@@H](O)[C@H](O)[C@H]5O)C4(C)C)[C@]3(C)[C@H](O)C[C@]12C [Mogroside V, reference compound]
Panelists [1]; 400 ppm Mogroside V in acidic water, without compound 1
  sweetness, equally sweet to sucrose in acidic water: 7 % sucrose

## C=C1C[C@@]23CC[C@H]4[C@@](C)(CCC[C@@]4(C)C(=O)O[C@@H]4O[C@H](CO)[C@@H](O)[C@H](O)[C@H]4O)[C@@H]2CC[C@]1(O[C@@H]1O[C@H](CO)[C@@H](O)[C@H](O[C@@H]2O[C@H](CO)[C@@H](O)[C@H](O)[C@H]2O)[C@H]1O[C@@H]1O[C@H](CO)[C@@H](O)[C@H](O)[C@H]1O)C3 [Rebaudioside A, reference compound]
Panelists [2]; 400 ppm Rebaudioside A in acidic water, without compound 1
  sweetness, equally sweet to sucrose in acidic water: 7 % sucrose

## C=C1C[C@@]23CC[C@H]4[C@@](C)(CCC[C@@]4(C)C(=O)O[C@@H]4O[C@H](CO)[C@@H](O)[C@H](O[C@@H]5O[C@H](CO)[C@@H](O)[C@H](O)[C@H]5O)[C@H]4O[C@@H]4O[C@H](CO)[C@@H](O)[C@H](O)[C@H]4O)[C@@H]2CC[C@]1(O[C@@H]1O[C@H](CO)[C@@H](O)[C@H](O[C@@H]2O[C@H](CO)[C@@H](O)[C@H](O)[C@H]2O)[C@H]1O[C@@H]1O[C@H](CO)[C@@H](O)[C@H](O)[C@H]1O)C3 [Rebaudioside M, reference compound]
Panelists [3]; 320 ppm Rebaudioside M in acidic water, without compound 1, two panelists
  sweetness, equally sweet to sucrose in acidic water: 8 % sucrose

## CC(C)CC(=O)N1CCC[C@H](COc2cccc3c2C(N)=NS(=O)(=O)N3)C1 [compound 1, (S)-1-(3-(((4-amino-2,2-dioxido-1H-benzo[c][1,2,6]thiadiazin-5-yl)oxy)methyl)piperidin-1-yl)-3-methylbutan-1-one]
Panelists [2]; [5]
  taste profile: bitterness: more bitter
  sweetness, equally sweet to sucrose in acidic water: 7 % sucrose
Panelists [2]; 5 ppm compound 1 in acidic water containing 400 ppm Rebaudioside A
  sweetness enhancement: does not enhance the sweetness
Panelists [3]; 5 ppm compound 1 alone in acidic water, two panelists
  sweetness against sucrose solution in acidic water: < 1.5 % sucrose
Panelists [3]; [6]
  taste profile: bitterness: no bitterness
  taste profile: mouthfeel: more mouthfeel
Panelists [3]; 5 ppm compound 1 and 320 ppm Rebaudioside M in acidic water, two panelists
  sweetness, equally sweet to sucrose in acidic water: 10 % sucrose
Panelists [1]; 5 ppm compound 1 and 400 ppm Mogroside V in acidic water, compared to the sample with just Mogroside V, one panelist
  taste profile: mouthfeel: more mouthfeel
Panelists [1]; [7]
  taste profile: bitterness: not bitter
  taste profile: sweet linger: slight sweet linger
  taste profile: sweetness onset: slower sweetness onset
Panelists [1]; 5 ppm compound 1 and 400 ppm Mogroside V in acidic water
  sweetness, equally sweet to sucrose in acidic water: 10 % sucrose
[4]
  solubility in water: not completely soluble
